Earlier results in patent publication US20230094837A1, “Biodegradable and Multifunctional Neural Block Devices” (The Penn State Research Foundation, priority 2020, published 2023).

System: femur mineral density
Settings: rats, oral administration

Which “effect on femur mineral density” value does the source give for `OC[C@@H](O)[C@H](O)[C@@H](O)CO` [xylitol] here?
Its value is “increased femur mineral density”.
